Data from patent US10689367B2, “Triazole pyridyl compounds as agonists of the APJ receptor” (AMGEN INC., priority 2016, dated 2020).

What follows are compounds tested against human APJ receptor (Homo sapiens (Human), UniProt P35414) (assay: [35S]GTPγS binding assay on membranes from CHO cells stably expressing human APJ receptor). Details: membranes of CHO cells stably expressing human APJ receptor, read-out: Activity hAPJ SPA EC50 IP.
Assay type: biochemical
Procedure, shortened: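 [35S]GTPγS binding measured on membranes from CHO cells stably expressing FLAG-tagged human APJ, with GDP, MgCl2 and NaCl levels optimized beforehand. Incubation 90 min at RT, imager read-out; EC50 from non-linear regression, averaged over several independent experiments.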

Sequence of human APJ receptor (P35414 whole entry): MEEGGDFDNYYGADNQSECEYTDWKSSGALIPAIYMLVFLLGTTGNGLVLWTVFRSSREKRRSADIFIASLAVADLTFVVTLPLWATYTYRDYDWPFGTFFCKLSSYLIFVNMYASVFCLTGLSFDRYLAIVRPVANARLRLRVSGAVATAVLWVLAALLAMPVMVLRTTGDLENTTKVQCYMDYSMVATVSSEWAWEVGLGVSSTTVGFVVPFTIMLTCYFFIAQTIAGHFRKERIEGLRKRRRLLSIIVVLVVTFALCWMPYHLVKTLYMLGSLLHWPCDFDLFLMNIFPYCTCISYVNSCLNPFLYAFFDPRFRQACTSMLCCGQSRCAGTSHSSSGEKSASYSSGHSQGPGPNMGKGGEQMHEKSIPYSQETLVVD

SMILES	EC50
COc1cccc(-c2nnc(NS(=O)(=O)[C@@H](C)[C@H](OC)c3ncc(Cl)cn3)n2[C@@H](C)c2ncn(C)n2)n1 (single isomer, unassigned) [Example 236.0, (1R,2S)-1-(5-chloro-2-pyrimidinyl)-1-methoxy-N-(5-(6-methoxy-2-pyridinyl)-4-((1R)-1-(1-methyl-1H-1,2,4-triazol-3-yl)ethyl)-4H-1,2,4-triazol-3-yl)-2-propanesulfonamide or (1R,2S)-1-(5-chloro-2-pyrimidinyl)-1-methoxy-N-(5-(6-methoxy-2-pyridinyl)-4-((1S)-1-(1-methyl-1H-1,2,4-triazol-3-yl)ethyl)-4H-1,2,4-triazol-3-yl)-2-propanesulfonamide]	7.2 nM
COc1cccc(-c2nnc(NS(=O)(=O)[C@@H](C)[C@H](C)c3ncc(Cl)cn3)n2[C@@H](C)c2ncn(C)n2)n1 (single isomer, unassigned) [Example 237.0, (2S,3R)-3-(5-chloro-2-pyrimidinyl)-N-(5-(6-methoxy-2-pyridinyl)-4-((1S)-1-(1-methyl-1H-1,2,4-triazol-3-yl)ethyl)-4H-1,2,4-triazol-3-yl)-2-butanesulfonamide or (2S,3R)-3-(5-chloro-2-pyrimidinyl)-N-(5-(6-methoxy-2-pyridinyl)-4-((1R)-1-(1-methyl-1H-1,2,4-triazol-3-yl)ethyl)-4H-1,2,4-triazol-3-yl)-2-butanesulfonamide]	130 nM
COc1cccc(-c2nnc(NS(=O)(=O)[C@@H](C)[C@H](C)c3ncc(Cl)cn3)n2[C@@H](C)c2ncn(C)n2)n1 (single isomer, unassigned) [Example 238.0, (2S,3R)-3-(5-chloro-2-pyrimidinyl)-N-(5-(6-methoxy-2-pyridinyl)-4-((1R)-1-(1-methyl-1H-1,2,4-triazol-3-yl)ethyl)-4H-1,2,4-triazol-3-yl)-2-butanesulfonamide or (2S,3R)-3-(5-chloro-2-pyrimidinyl)-N-(5-(6-methoxy-2-pyridinyl)-4-((1S)-1-(1-methyl-1H-1,2,4-triazol-3-yl)ethyl)-4H-1,2,4-triazol-3-yl)-2-butanesulfonamide]	6.2 nM
COc1cccc(-c2nnc(NS(=O)(=O)[C@@H](C)[C@@H](OC(C)C)c3ncc(C)cn3)n2[C@@H](C)c2nc(C)no2)n1 (single isomer, unassigned) [Example 239.0]	2.6 nM
COc1cccc(-c2nnc(NS(=O)(=O)[C@@H](C)[C@@H](OC(C)C)c3ncc(C)cn3)n2[C@@H](C)c2nc(C)no2)n1 (single isomer, unassigned) [Example 240.0, (1S,2S)-N-(5-(6-methoxy-2-pyridinyl)-4-((1S)-1-(3-methyl-1,2,4-oxadiazol-5-yl)ethyl)-4H-1,2,4-triazol-3-yl)-1-(5-methyl-2-pyrimidinyl)-1-(2-propanyloxy)-2-propanesulfonamide or (1S,2S)-N-(5-(6-methoxy-2-pyridinyl)-4-((1R)-1-(3-methyl-1,2,4-oxadiazol-5-yl)ethyl)-4H-1,2,4-triazol-3-yl)-1-(5-methyl-2-pyrimidinyl)-1-(2-propanyloxy)-2-propanesulfonamide]	2 nM
COc1cccc(-c2nnc(NS(=O)(=O)[C@@H](C)[C@@H](OC(C)C)c3ncc(C)cn3)n2[C@@H](C)c2ncc(C)o2)n1 (single isomer, unassigned) [Example 241.0, (1S,2S)-N-(5-(6-methoxy-2-pyridinyl)-4-((1S)-1-(5-methyl-1,3-oxazol-2-yl)ethyl)-4H-1,2,4-triazol-3-yl)-1-(5-methyl-2-pyrimidinyl)-1-(2-propanyloxy)-2-propanesulfonamide or (1S,2S)-N-(5-(6-methoxy-2-pyridinyl)-4-((1R)-1-(5-methyl-1,3-oxazol-2-yl)ethyl)-4H-1,2,4-triazol-3-yl)-1-(5-methyl-2-pyrimidinyl)-1-(2-propanyloxy)-2-propanesulfonamide]	7.4 nM
COc1cccc(-c2nnc(NS(=O)(=O)[C@@H](C)[C@@H](OC(C)C)c3ncc(C)cn3)n2[C@@H](C)c2ncc(C)o2)n1 (single isomer, unassigned) [Example 242.0, (1S,2S)-N-(5-(6-methoxy-2-pyridinyl)-4-((1S)-1-(5-methyl-1,3-oxazol-2-yl)ethyl)-4H-1,2,4-triazol-3-yl)-1-(5-methyl-2-pyrimidinyl)-1-(2-propanyloxy)-2-propanesulfonamide or (1S,2S)-N-(5-(6-methoxy-2-pyridinyl)-4-((1S)-1-(5-methyl-1,3-oxazol-2-yl)ethyl)-4H-1,2,4-triazol-3-yl)-1-(5-methyl-2-pyrimidinyl)-1-(2-propanyloxy)-2-propanesulfonamide]	13 nM
COc1cccc(-c2nnc(NS(=O)(=O)[C@@H](C)[C@H](OC)c3ncc(Cl)cn3)n2[C@@H](C)c2noc(C)n2)n1 (single isomer, unassigned) [Example 243.0, (1R,2S)-1-(5-chloro-2-pyrimidinyl)-1-methoxy-N-(5-(6-methoxy-2-pyridinyl)-4-((1S)-1-(5-methyl-1,2,4-oxadiazol-3-yl)ethyl)-4H-1,2,4-triazol-3-yl)-2-propanesulfonamide or (1R,2S)-1-(5-chloro-2-pyrimidinyl)-1-methoxy-N-(5-(6-methoxy-2-pyridinyl)-4-((1R)-1-(5-methyl-1,2,4-oxadiazol-3-yl)ethyl)-4H-1,2,4-triazol-3-yl)-2-propanesulfonamide]	3.7 nM
COc1cccc(-c2nnc(NS(=O)(=O)[C@@H](C)[C@H](OC)c3ncc(Cl)cn3)n2[C@@H](C)c2noc(C)n2)n1 (single isomer, unassigned) [Example 244.0, (1R,2S)-1-(5-chloro-2-pyrimidinyl)-1-methoxy-N-(5-(6-methoxy-2-pyridinyl)-4-((1R)-1-(5-methyl-1,2,4-oxadiazol-3-yl)ethyl)-4H-1,2,4-triazol-3-yl)-2-propanesulfonamide or (1R,2S)-1-(5-chloro-2-pyrimidinyl)-1-methoxy-N-(5-(6-methoxy-2-pyridinyl)-4-((1S)-1-(5-methyl-1,2,4-oxadiazol-3-yl)ethyl)-4H-1,2,4-triazol-3-yl)-2-propanesulfonamide]	8.2 nM
COc1cccc(-c2nnc(NS(=O)(=O)[C@@H](C)[C@H](C)c3ncc(Cl)cn3)n2[C@@H](C)c2noc(C)n2)n1 (single isomer, unassigned) [Example 245.0, (2S,3R)-3-(5-chloro-2-pyrimidinyl)-N-(5-(6-methoxy-2-pyridinyl)-4-((1R)-1-(5-methyl-1,2,4-oxadiazol-3-yl)ethyl)-4H-1,2,4-triazol-3-yl)-2-butanesulfonamide or (2S,3R)-3-(5-chloro-2-pyrimidinyl)-N-(5-(6-methoxy-2-pyridinyl)-4-((1S)-1-(5-methyl-1,2,4-oxadiazol-3-yl)ethyl)-4H-1,2,4-triazol-3-yl)-2-butanesulfonamide]	7 nM
COc1cccc(-c2nnc(NS(=O)(=O)[C@@H](C)[C@H](C)c3ncc(Cl)cn3)n2[C@@H](C)c2nc(C)no2)n1 (single isomer, unassigned) [Example 246.0, (2S,3R)-3-(5-chloro-2-pyrimidinyl)-N-(5-(6-methoxy-2-pyridinyl)-4-((1R)-1-(5-methyl-1,2,4-oxadiazol-3-yl)ethyl)-4H-1,2,4-triazol-3-yl)-2-butanesulfonamide or (2S,3R)-3-(5-chloro-2-pyrimidinyl)-N-(5-(6-methoxy-2-pyridinyl)-4-((1S)-1-(5-methyl-1,2,4-oxadiazol-3-yl)ethyl)-4H-1,2,4-triazol-3-yl)-2-butanesulfonamide]	3.4 nM
COc1cccc(-c2nnc(NS(=O)(=O)[C@@H](C)[C@H](C)c3ncc(Cl)cn3)n2[C@@H](C)c2nc(C)no2)n1 (single isomer, unassigned) [Example 247.0, (2S,3R)-3-(5-chloro-2-pyrimidinyl)-N-(5-(6-methoxy-2-pyridinyl)-4-((1R)-1-(3-methyl-1,2,4-oxadiazol-5-yl)ethyl)-4H-1,2,4-triazol-3-yl)-2-butanesulfonamide or (2S,3R)-3-(5-chloro-2-pyrimidinyl)-N-(5-(6-methoxy-2-pyridinyl)-4-((1S)-1-(3-methyl-1,2,4-oxadiazol-5-yl)ethyl)-4H-1,2,4-triazol-3-yl)-2-butanesulfonamide]	5.3 nM
COc1cccc(-c2nnc(NS(=O)(=O)[C@@H](C)[C@H](OC)c3ncc(Cl)cn3)n2[C@@H](C)c2ncnn2C)n1 (single isomer, unassigned) [Example 248.0, (1R,2S)-1-(5-chloro-2-pyrimidinyl)-1-methoxy-N-(5-(6-methoxy-2-pyridinyl)-4-((1S)-1-(1-methyl-1H-1,2,4-triazol-5-yl)ethyl)-4H-1,2,4-triazol-3-yl)-2-propanesulfonamide or (1R,2S)-1-(5-chloro-2-pyrimidinyl)-1-methoxy-N-(5-(6-methoxy-2-pyridinyl)-4-((1R)-1-(1-methyl-1H-1,2,4-triazol-5-yl)ethyl)-4H-1,2,4-triazol-3-yl)-2-propanesulfonamide]	270 nM
COc1cccc(-c2nnc(NS(=O)(=O)[C@@H](C)[C@H](OC)c3ncc(Cl)cn3)n2[C@@H](C)c2ncnn2C)n1 (single isomer, unassigned) [Example 249.0, (1R,2S)-1-(5-chloro-2-pyrimidinyl)-1-methoxy-N-(5-(6-methoxy-2-pyridinyl)-4-((1R)-1-(1-methyl-1H-1,2,4-triazol-5-yl)ethyl)-4H-1,2,4-triazol-3-yl)-2-propanesulfonamide or (1R,2S)-1-(5-chloro-2-pyrimidinyl)-1-methoxy-N-(5-(6-methoxy-2-pyridinyl)-4-((1S)-1-(1-methyl-1H-1,2,4-triazol-5-yl)ethyl)-4H-1,2,4-triazol-3-yl)-2-propanesulfonamide]	3 nM
COc1cccc(-c2nnc(NS(=O)(=O)[C@@H](C)[C@H](C)c3ncc(Cl)cn3)n2[C@@H](C)c2ncnn2C)n1 (single isomer, unassigned) [Example 250.0]	370 nM
